Reference: publication PMC11597089, “Kratom Alkaloids: A Blood–Brain Barrier Specific Membrane Permeability Assay-Guided Isolation and Cyclodextrin Complexation Study” (Molecules, 2024)

Experiments:
[1] = ACE complex stability, HPA-β-CD; assay type: physicochemical; conditions: mono-6^A-(3-hydroxy)propylamino-β-CD, positively charged, 30 mM phosphate buffer pH 7.4, 25 °C
Experimental: (§1) To investigate the CD complexation behavior of the four kratom alkaloids, we aimed to develop an ACE method for a systematic comparative study. […] To ensure sufficient buffer capacity and to avoid excessive current and Joule heat generation, the buffer concentration was set to 30 mM, and the applied voltage was 15 kV.
(§2) The ACE experiments were performed by using Agilent 7100 and HP^3DCE instruments (Agilent Technologies, Waldbronn, Germany). Untreated fused silica capillaries (total length of 48.5 cm, effective length of 40 cm, inner diameter of 50 μm) were purchased from Agilent Technologies. The new capillaries were conditioned with a 1 M NaOH wash for 1 h, followed by a 30 min wash each with 0.1 M NaOH and purified water. Prior to all runs, the capillary was preconditioned by rinsing with background electrolyte for 3 min. During the measurements, 30 mM phosphate buffer at pH 7.4 (30 mM Na2HPO4-NaOH) was used. The background electrolyte contained CDs at various concentrations. Stock solutions of the studied kratom alkaloids (mitragynine, paynantheine, speciogynine, speciociliatine) were prepared separately in methanol (1 mg/mL), and, right before the measurements, appropriate dilutions with purified water were used to prepare the sample solutions, applying 0.1% DMSO as the electroosmotic flow (EOF) marker. The samples were injected hydrodynamically at 40 mbar for 3 s. The positive polarity voltage was set to 15 kV, and the capillary was set to 25 °C. The electropherograms were recorded at four wavelengths (200 nm, 210 nm, 215 nm, and 220 nm), and the data were evaluated at 215 nm. In each case, three parallel measurements were performed. The measurements were evaluated using Origin and CEval software (v. 0.6i3).
(§3) In order to determine the complex stability constants that characterized the strength of the complexes, the first step was to determine the effective mobility of the analyte at specific CD concentrations. Triangular peaks caused by electromigration dispersion are often observed in ACE measurements.
(§4) Assuming a 1:1 complexation ratio and that the equilibrium CD concentration is almost equal to the total CD concentration, a relationship between the effective mobility relative to the EOF and the complex stability constant can be described by Function (4) (4) μeff=μA+μACDKstabCD/1+KstabCD where µeff is the effective mobility of the analyte, µA and µACD are the free and complexed analyte mobilities, [CD] is the concentration of the selector, and Kstab is the complex stability constant.
(§5) In order to calculate the exact, apparent, averaged complex stability constant values, viscosity correction and ionic strength correction were used.

[2] = ACE complex stability, CM-β-CD; assay type: physicochemical; conditions: carboxymethylated-β-CD DS~3, 30 mM phosphate buffer pH 7.4, 25 °C
Experimental: as §1, §2, §3, §4, §5

[3] = ACE complex stability, CM-α-CD; assay type: physicochemical; conditions: carboxymethylated-α-CD DS~3.5, 30 mM phosphate buffer pH 7.4, 25 °C
Experimental: as §1, §2
as §3, with “measurements. […]” for “measurements.”

[4] = ACE complex stability, β-CD; assay type: physicochemical; conditions: 30 mM phosphate buffer pH 7.4, 25 °C, 15 kV, 215 nm
Experimental: as §1, §2, §3, §4, §5

[5] = ACE complex stability, HMDiSu-β-CD; assay type: physicochemical; conditions: heptakis-(2-O-methyl, 3,6-O-disulfo)-β-CD, 30 mM phosphate buffer pH 7.4, 25 °C
Experimental: as §1, §2, §3, §4, §5

[6] = PAMPA-BBB permeability assay; assay type: in vitro ADME, porcine; conditions: for in vitro BBB permeability: PAMPA-BBB, in words; for Papp at 4 h, 100 µM: pig, PAMPA, read-out: logPe PAMPA-BBB (n = 9) (converted)
Experimental: Kratom extracts were tested for the membrane permeability of their constituents in a PAMPA-BBB assay. […] The blood–brain barrier-specific assay was tested and optimized for natural products by Könczöl et al.; this PAMPA-BBB assay was therefore chosen to determine the BBB permeability of the kratom constituents. […] It should be noted, however, that among the minor components that were not the focus of this study, there may be BBB+ compounds with significant biological activity.
All four isolated kratom alkaloids were also tested in the PAMPA-BBB model. As it can be seen in Table 1, all the investigated compounds had logPe values of between −4.42 and −4.77, which were greater than −6.0; according to Könczöl et al., this value effectively discriminates between compounds with good (BBB+) and poor (BBB−) blood–brain barrier permeability.
PAMPA-BBB was used to determine the effective permeability (Pe) for some extracts and the isolated compounds. Stock solutions (10 mM in DMSO) were diluted with the buffer (pH 7.4) to obtain the donor solutions (composition: 594.0 μL buffer + 6.0 μL stock solution). The buffer was prepared as follows: one PBS (phosphate-buffered saline, pH 7.4; Sigma Aldrich, Budapest, Hungary) tablet dissolved in 200.0 mL distilled water. Donor solutions were filtered through Phenex-RC 15 mm, 0.2 μm syringe filters (Gen-Lab Ltd., Budapest, Hungary).
For PAMPA-BBB, 5 μL of porcine polar brain lipid extract (PBLE) solution (16.0 mg of PBLE + 8.0 mg of cholesterol dissolved in 600.0 μL of n-dodecane) was applied to each well of 96-well polycarbonate-based filter donor plates (top plate) (Multiscreen™-IP, MAIPN4510, pore size 0.45 μm; Merck). The 96-well PTFE acceptor plates (bottom plates) (Multiscreen Acceptor Plate, MSSACCEPTOR; Merck) were filled with 300.0 μL of buffer solution (0.01 M PBS buffer, pH 7.4). The donor plate was placed upon the acceptor plate, and both plates were incubated together at 37 °C for 4 h in a Heidolph Titramax 1000 Vibrating platform shaker (Heidolph, Schwabach, Germany).
After incubation, sandwich plates were separated, and the concentrations of each compound in the starting donor solution and in the acceptor and donor wells were determined in triplicate by the chromatographic peak areas derived from the UHPLC-UV method described above. The UV spectra and chromatograms were recorded at 200–400 nm, and the chromatograms acquired at the UV absorption maxima of each compound were used for data evaluation. The effective permeability and the membrane retention in PAMPA-BBB were calculated by Equations (1) and (2), respectively:(1) Pe=−2.303/A(t−τSS)·(VA·VD/VA+VD)·lg[1−(VA+VD/(1−MR)·VD)×(CA(t)/CD(0))] where Pe is the effective permeability coefficient (cm/s), A is the filter area (0.24 cm^2), VD and VA are the volumes in the donor (0.15 cm^3) and acceptor phases (0.30 cm^3), t is the incubation time (s), τSS is the time (s) to reach the steady state (240 s), CD(t) is the concentration (mol/cm^3) of the compound in the donor phase at time t, CD(0) is the concentration (mol/cm^3) of the compound in the donor phase at time 0, and MR is the estimated membrane retention factor (the estimated mole fraction of solute lost to the membrane), defined as (2) MR=1−CD(t)/CD(0)−VA/VDCA(t)/CD(0)
All experiments were performed in triplicate on three consecutive days (n = 9); caffeine standard was used as the positive control, with rutin as the negative control.

[7] = ACE complex stability, MA-β-CD; assay type: physicochemical; conditions: mono-(6-N-amino-6-deoxy)-β-CD, positively charged, 30 mM phosphate buffer pH 7.4, 25 °C
Experimental: as §1, §2, §3, §4, §5

[8] = ACE complex stability, γ-CD; assay type: physicochemical; conditions: 30 mM phosphate buffer pH 7.4, 25 °C, 15 kV, 215 nm
Experimental: as §1, §2, §3, §4, §5

[9] = pH 7.4, 37 °C, 4 h, n = 9, Pe in cm/s

Compound	complex stability constant (Kstab) with HPA-β-CD [1] [M⁻¹]	complex stability constant (Kstab) with CM-β-CD [2] [M⁻¹]	complex stability constant (Kstab) with CM-α-CD [3] [M⁻¹]	complex stability constant (Kstab) with β-CD [4] [M⁻¹]	complex stability constant (Kstab) with HMDiSu-β-CD [5] [M⁻¹]	in vitro BBB permeability [6]	Papp at 4 h, 100 µM [6, 9] [×10⁻⁶ cm/s]	complex stability constant (Kstab) with MA-β-CD [7] [M⁻¹]	complex stability constant (Kstab) with γ-CD [8] [M⁻¹]	logPe PAMPA-BBB (n = 9) [6, 9]
C=C[C@H]1CN2CCc3c([nH]c4cccc(OC)c34)[C@@H]2C[C@@H]1/C(=C\OC)C(=O)OC [Paynantheine, paynantheine]	< 10	185 ± 15	175 ± 12	145 ± 15	350 ± 10	excellent	24.5	< 10	140 ± 5	
CC[C@@H]1CN2CCc3c([nH]c4cccc(OC)c34)[C@H]2C[C@@H]1/C(=C\OC)C(=O)OC [Speciociliatine, speciociliatine]	< 10	230 ± 20		35 ± 3	100 ± 1	excellent	26.3	< 10	15 ± 1	
CC[C@H]1CN2CCc3c([nH]c4cccc(OC)c34)[C@@H]2C[C@@H]1/C(=C\OC)C(=O)OC [Speciogynine, speciogynine]	< 10	170 ± 15	135 ± 12	65 ± 9	530 ± 10	excellent	17	< 10	45 ± 4	
mitragynine	< 10	215 ± 20	155 ± 15	145 ± 20	230 ± 25	excellent		< 10	55 ± 5	−4.42 ± 0.61
